Molecules are shown by their SMILES. Non-standard residues stand in square brackets, D forms with d. Residues, ends and D or L forms follow the SMILES beside them. *: point of attachment. 1Nal = N[C@@H](Cc1cccc2ccccc12)C(=O)O; Sta = CC(C)C[C@H](N)[C@@H](O)CC(=O)O; Cbz = O=C(OCc1ccccc1)*; NHNH2 = NN*

A word on the melting point: it is the temperature of the solid-liquid transition. As to `CCCC1(CCC)C(=O)N(C(C)(C)C)CC(C)(C)N1OC(C)(C)C#N`, the melting point lay within 85 to 87 °C.

Regarding `CC(C)(C)C1=NN(c2ccc(C(=O)O)cc2)C(c2ccc(O)cc2)C1` (stereo unspecified), the melting point was found to be 259 °C.

For `Cc1cc(=O)n2cccc(OCc3ccccc3Br)c2n1`, the melting point was 144 to 146 °C.

Compound `CC=CCn1c(C)c(C)c2cnnc(OCc3ccc(Cl)cc3Cl)c21` showed a melting point of 133 to 134 °C.

Regarding `C#CCn1c(-c2ccccc2)nc(C=C)c(CC)c1=O`, the melting point is 113 to 115 °C.

Compound `CC1=NC=CC(C)(c2c(F)cc3c(=O)c(C(=O)O)cn4c3c2OCC4C)C1` (stereo unspecified) displayed a melting point of 308 to 312 °C.

Compound `CSc1ccc(-c2coc3ccc(C(=O)NN)nc23)cc1` showed a melting point of 240 to 241 °C.

As for `CS(=O)(=O)c1ccc(-c2c(-c3ccc(F)cc3)nn3c(-c4ccc(F)cc4)coc23)cc1`, the melting point lay in the range of 289 to 291 °C.

`CCOC(=O)COc1ccc(Nc2nccc(-c3ccncc3)n2)cc1` gave a melting point of 109 to 111 °C.

Compound `COC(=O)C1=C(C)Nc2ccccc2SC1c1ccccc1C(F)(F)F` (stereo unspecified) yielded a melting point of 165 to 166 °C.

The compound `COCCNC(=O)c1ccc(CN2C(=O)C3(COc4cc5c(cc43)CCO5)c3ccccc32)cc1` (stereo unspecified) showed a melting point of 182 to 183 °C.

For the compound `CC(C)NCC(O)COc1cccnc1N` (stereo unspecified), the melting point was determined as 110 °C.

As for `Cn1c(=O)n(CC(=O)O)c(=O)c2cc([N+](=O)[O-])ccc21`, the melting point lay in the range of 217 to 220 °C.

In turn, `C[C@H](Nc1nc(Nc2cccc(NS(C)(=O)=O)c2)nc2[nH]cnc12)C(C)(C)C` returned a melting point of 150 to 153 °C.

`COc1ccc(N(C=C(C#N)C#N)N=C(C#N)C#N)cc1` had a melting point of 143 to 145 °C.

In turn, `COC(=O)c1ccc(C=NNc2cc(C(C)(C)C)cc(C(C)(C)C)c2)cc1` displayed a melting point of 215 to 220 °C.

Compound `CN(C)CCCN=C1CC(c2ccc(Cl)cc2Cl)Cc2[nH]c3ccc(Cl)cc3c(=O)c21` (stereo unspecified) returned a melting point of 168 to 170 °C.

Compound `CC(=NNc1ccccc1)c1c(-c2ccccc2)noc1C` had a melting point of 129 to 133 °C.

In the case of `CNS(=O)(=O)c1ccc(Oc2ccc(NC(C)=O)cc2)cc1`, the melting point was 183 to 184 °C.

Regarding `CCn1nc(Br)c([N+](=O)[O-])c1NCc1ccccc1`, the melting point was 92 °C.

In the case of `CC(=C1SC(=O)NC1=O)c1cccc(OCCOc2c(-c3ccc(F)cc3C)n(C)c3ccccc3c2=O)c1`, the melting point fell in the range of 225 to 226 °C.

In the case of `Cc1c(C)c2c(c(C)c1NC(=O)NC(C)(C)CO)C(c1ccc(C(C)C)cc1)CO2` (stereo unspecified), the melting point is 157 to 158 °C.

Take `CN(C)CCNC(=O)Cc1ccc(NC(=O)Cc2ccc([N+](=O)[O-])cc2)cc1`: the melting point lay in the range of 160 to 162 °C.

In the case of `CCOC(=O)c1cn(-c2ccccc2)c2oc(CN3CCOCC3)cc2c1=O`, the melting point was in the range of 210 to 212 °C.

`C=CCc1c(OC)c(C)c2c(c1OC(C)=O)C(=O)OC2` showed a melting point of 101 to 102 °C.

Consider `O=C(N[C@H]1C[C@H](C(=O)O)Nc2cc(Cl)cc(Cl)c21)OCc1ccccc1` (relative stereo), for which the melting point came to 169 °C.

`Cc1ncc(CN)c(N)n1` registered a melting point of 155 °C.

Compound `CC(C)CC1(C(CCN2C(=O)c3ccc(F)cc3C2=O)C(=O)NO)CCN(CCc2ccccc2)C1=O` (stereo unspecified) yielded a melting point of 143 to 144 °C.

In turn, `CS(=O)(=O)c1ncc2cc(-c3ccccc3Cl)c(O)nc2n1` yielded a melting point of 215 to 221 °C.

`CC1(C)Oc2ccc(S(=O)(=O)C(F)(F)F)cc2[C@@H](N2Cc3c(F)cccc3C2=O)[C@@H]1O` (relative stereo) had a melting point of 259 to 261 °C.

`CCOc1ccc(-c2cc3ccccc3[nH]2)cc1OC` came in with a melting point of 177 °C.

`NC(=O)c1c(C(=O)O)cnn1-c1cccc(F)c1` came in with a melting point of 215 to 216 °C.

`CCOc1ccc(C2=NN(C3CCN(C(=O)NC(C)(C)C)CC3)C(=O)[C@@H]3CC=CC[C@H]23)cc1OCC` came in with a melting point of 145 to 148 °C.

`CC1(C)C(C(=O)O)C1C(Br)C(Br)(Br)Br` (stereo unspecified) returned a melting point of 150 °C.

In turn, `O=S(=O)(NC1Cc2ccc(CCO)cc2C1)c1ccc(Cl)cc1` (stereo unspecified) came in with a melting point of 71 to 76 °C.

Take `COCCOc1cc2ncc(C#N)c(Nc3cc(OC)c(OC)c(OC)c3)c2cc1OC`: the melting point was in the range of 188 to 190 °C.

`O=C(CC1c2ccccc2C(=O)N1C1CCCCC1)N1CCCCC1` (stereo unspecified) had a melting point of 158 to 160 °C.

Compound `CCn1ncnc1COc1nc2c(-c3ccccc3)nnc(C)n2c1C1CCCC1` came in with a melting point of 94 to 96 °C.

In turn, `O=c1ncc(Cl)cn1COCc1cnsn1` gave a melting point of 106 °C.

The compound `CC1=CC(C=O)(NC(c2ccccc2)(c2ccccc2)c2ccccc2)NC=C1` (stereo unspecified) had a melting point of 213 °C.

For the compound `CC(C)NCC(O)COc1ccc(CCO)cc1` (stereo unspecified), the melting point lay in the range of 77 to 78 °C.

As to `CC(C)(C)OC(=O)N1CCN(c2c(F)cc(N3CC(CO)OC3=O)cc2F)CC1` (stereo unspecified), the melting point lay in the range of 164 to 166 °C.

For `CCOP(=O)(OCC)C(CNC=NNC(=O)c1nc2ccccc2[nH]1)P(=O)(OCC)OCC`, the melting point was 143 °C.

`CCOC(=O)c1ccc(NC2CCCc3ccccc32)cc1` (stereo unspecified): the melting point stood at 34 °C.

On to `O=C(O)c1cccc(-c2cccn3c(=O)n(Cc4cccc(C(F)(F)F)c4)nc23)c1`, for which the melting point is 218 to 222 °C.

For the compound `CC(C)C[C@H](NC(=O)[C@H](Cc1c[nH]cn1)NC(=O)[C@H](Cc1cccc2ccccc12)NC(=O)OCc1ccccc1)[C@@H](O)CC(=O)NN` (Cbz-[1Nal]-His-[Sta]-NHNH2), the melting point fell in the range of 120 to 127 °C.

In turn, `C[C@H](c1ccncn1)[C@@](O)(CO)c1ccc(F)cc1F` showed a melting point of 148 to 150 °C.

The compound `CC(C)(c1ccc(O)cc1)c1ccc(-c2ccc(C(C)(C)c3ccc(O)cc3)cc2)cc1` displayed a melting point of 195 to 196 °C.

Turning to `CC(=O)N1CCc2cc(S(=O)(=O)C[N+](=O)[O-])ccc21`, the melting point was found to be 210 °C.

For `Cc1noc(NS(=O)(=O)c2ccccc2-c2ccc(-c3ncco3)cc2Cn2c(=O)oc3ccccc32)c1C`, the melting point lay within 130 to 137 °C.

As for `CCNC(=O)C(=O)[C@H](Cc1ccccc1)NC(=O)[C@H](CC(C)C)NC(=O)OC1CCOCC1`, the melting point lay in the range of 140 to 142 °C.

For the compound `COC(=O)C(C)(C)c1ccc(C(=O)Nc2cn3cc(-c4cn[nH]c4)ccc3n2)cc1`, the melting point lay in the range of 248 to 249 °C.

`Cc1c(-c2ccncn2)nc2n(c1=O)CCCN2`: the melting point lay within 206 to 207 °C.

With `c1ccc(-c2ccc(-c3nc4n(n3)CCc3ccccc3-4)cc2)cc1`, the melting point lay within 143 to 144 °C.

In turn, `Fc1ccc2sccc2c1` gave a melting point of 21 to 22 °C.

In turn, `CC(c1ccc(NC=O)c([N+](=O)[O-])c1)n1ccnc1` (stereo unspecified) gave a melting point of 158 °C.

`CCC(=C(c1ccccc1)c1ccc(OCC2CO2)cc1)C1CCCC1` (stereo unspecified): the melting point was in the range of 79 to 82 °C.

In the case of `CCOC(=O)c1c(-c2ccc(F)cc2)cc(-c2cccc3c2OCO3)nc1C(C)C`, the melting point lay within 148 to 150 °C.

`COc1ccc(C2(CNC(=O)Nc3c(C(C)C)cccc3C(C)C)CCCC2)cc1` registered a melting point of 144 to 147 °C.

`CCOc1cc(C)ccc1C1CCN(CCCCNC(=O)c2ccc3oc(-c4ccc(Cl)cc4)cc3c2)CC1` came in with a melting point of 145 to 158 °C.

As for `CC1CC(=O)NN=C1c1ccc2[nH]c(CCCN3C(=O)c4ccccc4C3=O)nc2c1` (stereo unspecified), the melting point was 260 to 261 °C.

`CCOC(=O)C(=CNc1ccn(Cc2ccccc2)n1)C(=O)OCC` registered a melting point of 57 to 59 °C.

Compound `COc1cc(Nc2ncnc3cc(OCCCc4ccncc4)c(OC)cc23)c(OC)cc1Cl` gave a melting point of 205 to 208 °C.

With `CN(C(=O)N1CCCC1)c1cccc2cc(-c3nccs3)[nH]c12`, the melting point stood at 182 °C.

`COc1cc(OC)nc(Sc2c([N+](=O)[O-])nc(C)n2C)n1` displayed a melting point of 228 to 230 °C.

As to `COC(=O)N1Cc2c(O)noc2C(C)C1` (racemic), the melting point was 128 to 129 °C.

Compound `CC(=O)c1c(-c2ccc(Cl)cc2)c(-c2ccc(Cl)cc2)nn(CCO)c1=O` gave a melting point of 191 to 193 °C.

For `O=C(O)Cc1c(C(=O)O)c2cc(Oc3ccc(Cl)cc3)ccc2n1-c1ccc(N2CCCCC2)cc1`, the melting point is 183 to 187 °C.

On to `COc1cc(NN)c(F)cc1C#N`, for which the melting point lay in the range of 155 to 156 °C.

Compound `Cc1nc2c(c3c1[nH]c1ccc(Cl)cc13)C(=O)CC(C)(C)C2` yielded a melting point of 244 to 246 °C.

Regarding `COCc1cccc(CC=NO)c1[N+](=O)[O-]`, the melting point lay in the range of 92 to 95 °C.

Compound `O=C(c1ccccc1CBr)c1ccc(F)cc1CBr` showed a melting point of 98 to 99 °C.

Compound `CSC1C(OC(C)=O)C(COC(C)=O)OC1n1ccc(=O)[nH]c1=O` (stereo unspecified) displayed a melting point of 132 °C.

In turn, `NC(=O)c1cccc(-c2cc(OC(=O)NC3CCCCC3)ccc2O)c1` had a melting point of 128 to 130 °C.

The compound `COCc1ccc2ccc(C=O)nc2c1Cl` came in with a melting point of 118 to 121 °C.

Compound `COC(=O)[C@H](Cc1ccc(NC(=O)c2c(Cl)cccc2Cl)cc1)NC(=O)OC(C)(C)C` yielded a melting point of 148 to 151 °C.

In turn, `CN(C)C1(c2cccc(F)c2)CCC2(OCCc3c2[nH]c2ccccc32)C(CNC(=O)C=Cc2cccc(-c3ccccc3)c2)C1` (stereo unspecified) registered a melting point of 134 to 140 °C.

In turn, `CCCCCCCCS(=O)(=O)Nc1ccccc1Oc1ccccc1C(=O)O` showed a melting point of 100 to 102 °C.

As for `COCc1cc(N(C)C)ncn1`, the melting point fell in the range of 42 to 44 °C.

For the compound `Nc1ccc(-c2noc(-c3cnn4c(C(F)F)cc(-c5ccc(Cl)c(Cl)c5)nc34)n2)cn1`, the melting point was 279 °C.

The compound `COCC(=O)NCC(=O)N1CC1C#N` (stereo unspecified) returned a melting point of 70 to 72 °C.

Turning to `CCOCC(=Nc1ccc(Cl)cc1C(F)(F)F)n1ccnc1`, the melting point is 49 to 52 °C.

On to `CCOc1c(C#N)oc2c3ccccc3n(-c3ccccc3)c12`, for which the melting point was 121 to 122 °C.

As to `Cc1ccc2c(c1)C(C(=O)Nc1ccccc1)c1ccccc1CO2` (stereo unspecified), the melting point is 129 to 130 °C.

In turn, `OC(COCCCl)c1ccc2cc(OCc3ccccc3)ccc2c1` (stereo unspecified) displayed a melting point of 86 to 87.5 °C.

`CC(=O)Nc1ccc2c(c1)C(=O)C(Br)CCO2` (stereo unspecified): the melting point was in the range of 157 to 160 °C.

These data come from a melting point compilation (Tetko et al.; mined from patent text by program, amines drawn as free bases though some values may be those of a salt).
